What all share (assay type): in vivo
In experiment [1] the test system is Green Peach Aphid (GPA) (Myzus persicae). Description: Bioassay on green peach aphid (GPA), foliar spray on cabbage seedlings. The note with it: 72 h, read-out: % Mortality GPA 200 ppm. How it is done:
Bioassays on Green Peach Aphid (“GPA”) (Myzus persicae)
Certain molecules disclosed in this document were tested against GPA using procedures described in the following example. In the reporting of the results, the “GPA Rating Table” was used (See Table Section).
Cabbage seedlings grown in 3-inch pots, with 2-3 small (3-5 cm) true leaves, were used as test substrate. The seedlings were infested with 20-50 GPA (wingless adult and nymph stages) one day prior to chemical application. Four pots with individual seedlings were used for each treatment. Test compounds (2 mg) were dissolved in 2 mL of acetone/methanol (1:1) solvent, forming stock solutions of 1000 ppm test compound. The stock solutions were diluted 5× with 0.025% Tween 20 in H2O to obtain the solution at 200 ppm test compound. A hand-held aspirator-type sprayer was used for spraying a solution to both sides of […] leaves until runoff. Reference plants (solvent check) were sprayed with the diluent only containing 20% by volume of acetone/methanol (1:1) solvent. Treated plants were held in a holding room for three days at approximately 25° C. and ambient relative humidity (RH) prior to grading. Evaluation was conducted by counting the number of live aphids per plant under a microscope. Percent Control was measured by using Abbott's correction formula (W. S. Abbott, “A Method of Computing the Effectiveness of an Insecticide” J. Econ. Entomol. 18 (1925), pp. 265-267) as follows. Corrected%Control=100*(X−Y)/X • where • X=No. of live aphids on solvent check plants and • Y=No. of live aphids on treated plants
The results are indicated in the table entitled “Table 5: Biological Results” (See Table Section).

Experiment [2] deals with Corn Earworm (CEW) (Helicoverpa zea). The experiment in a line: Bioassay on corn earworm (CEW), 128-well diet tray assay. The settings on record: Helicoverpa zea; Corn earworm, 50 μg/cm^2; read-out: % Mortality CEW 50 μg/cm^2. Summed up: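 Second-instar Helicoverpa zea larvae (one to five per well) placed on artificial diet treated with 50 μg/cm^2 compound in 90:10 acetone-water, dried, eight wells per compound. Held at 25 °C, 14:10 light-dark, five to seven days; percent mortality averaged over wells.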

Experiment [3] concerns Beet Armyworm (BAW) (Spodoptera exigua). Description: Bioassay on beet armyworm (BAW), 128-well diet tray assay. The note with it: Spodoptera exigua; Beet armyworm, 50 μg/cm^2; read-out: % Mortality BAW 50 μg/cm^2. Summed up: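 Second-instar Spodoptera exigua larvae, one to five per well, on artificial diet treated with 50 μg/cm^2 compound in 90:10 acetone-water and dried, eight wells per compound. Held at 25 °C, 14:10 light-dark for five to seven days; percent mortality averaged over wells.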

Take `CC(C)c1ccccc1N1C(=O)CCSC1=NN=Cc1ccc(-c2ncn(-c3ccc(OC(F)(F)F)cc3)n2)cc1` (stereo in doubt) [Compound 224C, (Z)-3-(2-isopropylphenyl)-2-((E)-(4-(1-(4-(trifluoromethoxy)phenyl)-1H-1,2,4-triazol-3-yl)benzylidene)hydrazono)-1,3-thiazinan-4-one]: in experiment [1], the pest or weed control at 200 ppm is 0 to 80%. In addition, the pest or weed control at 50 µg/cm2, 50 µg/cm2 in experiment [2] and in experiment [3] was 50 to 100% each time.
For the compound `Cc1cccc(C)c1/N=C(/N/N=C/c1ccc(-c2ncn(-c3ccc(OC(F)(F)F)cc3)n2)cc1)SC/C=C/Br` [Compound 4C], in experiment [1], the pest or weed control at 200 ppm lay within 0 to 80%. In addition, the pest or weed control at 50 µg/cm2, 50 µg/cm2 in experiment [2] and in experiment [3] was 50 to 100% in each case.
Consider `Cc1cccc(C)c1/N=C(/N/N=C/c1ccc(-c2ncn(-c3ccc(OC(F)(F)F)cc3)n2)cc1)SCc1c(F)cccc1F` [Compound 5C], for which the pest or weed control at 200 ppm in experiment [1] fell in the range of 0 to 80%. The pest or weed control at 50 µg/cm2, 50 µg/cm2 in experiment [2] and in experiment [3] was 50 to 100% each time.
In the case of `Cc1cccc(C)c1/N=C(/N/N=C/c1ccc(-c2ncn(-c3ccc(OC(F)(F)F)cc3)n2)cc1)SCc1ccc(OC(F)(F)F)cc1` [Compound 8C], the pest or weed control at 200 ppm in experiment [1] is 0 to 80%. Also, the pest or weed control at 50 µg/cm2, 50 µg/cm2 in experiment [2] and in experiment [3] was 50 to 100% in each case.
Consider `COC(=O)c1ccc(CS/C(=N\c2c(C)cccc2C)N/N=C/c2ccc(-c3ncn(-c4ccc(OC(F)(F)F)cc4)n3)cc2)cc1` [Compound 12C], for which the pest or weed control at 200 ppm in experiment [1] was 0 to 80%. For the same compound, the pest or weed control at 50 µg/cm2, 50 µg/cm2 in experiment [2] and in experiment [3] was 50 to 100% in each case.
Regarding `Cc1cccc(C)c1/N=C(/N/N=C/c1ccc(-c2ncn(-c3ccc(OC(F)(F)F)cc3)n2)cc1)SCc1ccc(S(N)(=O)=O)cc1` [Compound 13C], the pest or weed control at 200 ppm in experiment [1] was 0 to 80%. Also, the pest or weed control at 50 µg/cm2, 50 µg/cm2 in experiment [2] and in experiment [3] was 50 to 100% each time.
On to `Cc1cccc(C)c1/N=C(/N/N=C/c1ccc(-c2ncn(-c3ccc(OC(F)(F)F)cc3)n2)cc1)SCc1cccc2nsnc12` [Compound 14C], for which the pest or weed control at 200 ppm in experiment [1] fell in the range of 0 to 80%. Moreover, the pest or weed control at 50 µg/cm2, 50 µg/cm2 in experiment [2] and in experiment [3] was 50 to 100% throughout.
As to `Cc1cccc(C)c1/N=C(/N/N=C/c1ccc(-c2ncn(-c3ccc(OC(F)(F)F)cc3)n2)cc1)SCc1ocnc1-c1ccccc1` [Compound 15C], the pest or weed control at 200 ppm in experiment [1] fell in the range of 80 to 100%. Moreover, the pest or weed control at 50 µg/cm2, 50 µg/cm2 in experiment [2] and in experiment [3] was 50 to 100% in each case.
Take `Cc1cccc(C)c1/N=C(/N/N=C/c1ccc(-c2ncn(-c3ccc(OC(F)(F)F)cc3)n2)cc1)SCc1ccc(S(C)(=O)=O)cc1` [Compound 17C]: the pest or weed control at 200 ppm in experiment [1] was in the range of 0 to 80%. Moreover, the pest or weed control at 50 µg/cm2, 50 µg/cm2 in experiment [2] and in experiment [3] was 50 to 100% in each case.
Turning to `Cc1cccc(C)c1/N=C(/N/N=C/c1ccc(-c2ncn(-c3ccc(OC(F)(F)F)cc3)n2)cc1)SCc1ccc(S(=O)(=O)Nc2ccc(F)cc2)cc1` [Compound 18C], the pest or weed control at 200 ppm in experiment [1] was 0 to 80%. The pest or weed control at 50 µg/cm2, 50 µg/cm2 in experiment [2] and in experiment [3] was 50 to 100% throughout.
In the case of `Cc1cccc(C)c1/N=C(/N/N=C/c1ccc(-c2ncn(-c3ccc(OC(F)(F)F)cc3)n2)cc1)SCc1cc2c(C(F)(F)F)nn(C)c2s1` [Compound 19C], in experiment [1], the pest or weed control at 200 ppm lay in the range of 0 to 80%. Besides, the pest or weed control at 50 µg/cm2, 50 µg/cm2 in experiment [2] and in experiment [3] was 50 to 100% each time.
As for `CCOCC(=O)OCS/C(=N\c1c(C)cccc1C)N/N=C/c1ccc(-c2ncn(-c3ccc(OC(F)(F)F)cc3)n2)cc1` [Compound 22C], the pest or weed control at 200 ppm in experiment [1] is 0 to 80%. Also, the pest or weed control at 50 µg/cm2, 50 µg/cm2 in experiment [2] and in experiment [3] was 50 to 100% each time.
Take `CCOCC(=O)OCS/C(=N\c1c(Cl)cc(OC)cc1Cl)N/N=C/c1ccc(-c2ncn(-c3ccc(OC(F)(F)F)cc3)n2)cc1` [Compound 32C]: the pest or weed control at 200 ppm in experiment [1] fell in the range of 0 to 80%.
The same measure, in the same setting: for `COc1cc(Cl)c(/N=C(/N/N=C/c2ccc(-c3ncn(-c4ccc(OC(F)(F)F)cc4)n3)cc2)SCOC(=O)C(C)C)c(Cl)c1` [Compound 34C] the value was 0 to 80%.
For the compound `COc1ccc(C(C)/N=C(/N/N=C/c2ccc(-c3ncn(-c4ccc(OC(F)(F)F)cc4)n3)cc2)SCC(=O)O)cc1` (stereo not drawn) [Compound 52C], the pest or weed control at 200 ppm in experiment [1] fell in the range of 0 to 80%. Besides, the pest or weed control at 50 µg/cm2, 50 µg/cm2 in experiment [3] lay in the range of 0 to 50%.
The like results for `COc1ccc(C(C)/N=C(/N/N=C/c2ccc(-c3ncn(-c4ccc(OC(F)(F)F)cc4)n3)cc2)SCC(=O)O)cc1F` (stereo not drawn) [Compound 53C] were, in that order, 0 to 80% and 0 to 50%.
For the compound `CC(C)c1ccccc1/N=C1\SCCCN1/N=C/c1ccc(-c2ncn(-c3ccc(C(F)(F)F)cc3)n2)cc1` [Compound 87C, (2Z,NE)-2-((2-isopropylphenyl)imino)-N-(4-(1-(4-(trifluoromethyl)phenyl)-1H-1,2,4-triazol-3-yl)benzylidene)-1,3-thiazinan-3-amine], in experiment [1], the pest or weed control at 200 ppm lay in the range of 0 to 80%.
Consider `CC(C)c1ccccc1N1CS/C1=N\N=C\c1ccc(-c2ncn(-c3ccc4c(c3)OC(F)(F)O4)n2)cc1` [Compound 249C], for which the pest or weed control at 50 µg/cm2, 50 µg/cm2 in experiment [2] and in experiment [3] was 50 to 100% each time.
Take `CC(C)c1cccc(F)c1N1CS/C1=N\N=C\c1ccc(-c2ncn(-c3ccc(OC(F)(F)F)cc3)n2)cc1` [Compound 250C]: the pest or weed control at 50 µg/cm2, 50 µg/cm2 in experiment [2] and in experiment [3] was 50 to 100% in each case.
With `CC(C)c1ccc(F)cc1N1CS/C1=N\N=C\c1ccc(-c2ncn(-c3ccc(OC(F)(F)F)cc3)n2)cc1` [Compound 251C], the pest or weed control at 50 µg/cm2, 50 µg/cm2 in experiment [2] and in experiment [3] was 50 to 100% each time.
`CC(C)c1cc(F)ccc1N1CS/C1=N\N=C\c1ccc(-c2ncn(-c3ccc(OC(F)(F)F)cc3)n2)cc1` [Compound 252C]: the pest or weed control at 50 µg/cm2, 50 µg/cm2 in experiment [2] and in experiment [3] was 50 to 100% in each case.
For the compound `CC(C)c1c(F)cccc1N1CS/C1=N\N=C\c1ccc(-c2ncn(-c3ccc(OC(F)(F)F)cc3)n2)cc1` [Compound 253C], the pest or weed control at 50 µg/cm2, 50 µg/cm2 in experiment [2] and in experiment [3] was 50 to 100% throughout.
As to `CCc1ccccc1N1CS/C1=N\N=C\c1ccc(-c2ncn(-c3ccc(OC(F)(F)F)cc3)n2)cc1` [Compound 254C], the pest or weed control at 50 µg/cm2, 50 µg/cm2 in experiment [2] and in experiment [3] was 50 to 100% throughout.
For `CC(C)c1ccc(F)cc1N1CS/C1=N\N=C\c1ccc(-c2ncn(-c3ccc(C(F)(F)F)cc3)n2)cc1` [Compound 255C], the pest or weed control at 50 µg/cm2, 50 µg/cm2 in experiment [2] and in experiment [3] was 50 to 100% each time.
With `CC(C)c1ccc(F)cc1N1CS/C1=N\N=C\c1ccc(-c2ncn(-c3ccc(OC(F)(F)C(F)(F)F)cc3)n2)cc1` [Compound 256C], the pest or weed control at 50 µg/cm2, 50 µg/cm2 in experiment [2] and in experiment [3] was 50 to 100% in each case.
On to `CC(C)c1ccc(F)cc1N1CS/C1=N\N=C\c1ccc(-c2ncn(-c3ccc(C(F)(C(F)(F)F)C(F)(F)F)cc3)n2)cc1` [Compound 257C], for which the pest or weed control at 50 µg/cm2, 50 µg/cm2 in experiment [2] and in experiment [3] was 50 to 100% throughout.
As for `CC(C)c1ccc(F)cc1N1CS/C1=N\N=C\c1ccc(-c2ncn(-c3ccc(C(F)(C(F)(F)F)C(F)(F)C(F)(F)F)cc3)n2)cc1` (stereo not drawn) [Compound 258C], the figures for the pest or weed control at 50 µg/cm2, 50 µg/cm2 in experiment [2] and in experiment [3] were 50 to 100% and 0 to 50%, respectively.
Taken in the same sequence, the figures for `CC(C)c1ccc(F)cc1N1CS/C1=N\N=C\c1ccc(-c2ncn(-c3ccc(C(C)(F)F)cc3)n2)cc1` [Compound 259C] were 50 to 100% and 50 to 100%.
Turning to `CC(C)c1ccc(F)cc1N1CS/C1=N\N=C\c1ccc(-c2ncn(-c3ccc(C(F)(F)C(F)(F)F)cc3)n2)cc1` [Compound 260C], the pest or weed control at 50 µg/cm2, 50 µg/cm2 in experiment [2] and in experiment [3] was 50 to 100% throughout.
As to `CC(C)c1cc(F)ccc1N1CS/C1=N\N=C\c1ccc(-c2ncn(-c3ccc(C(F)(F)F)cc3)n2)cc1` [Compound 261C], the pest or weed control at 50 µg/cm2, 50 µg/cm2 in experiment [2] and in experiment [3] was 50 to 100% throughout.

Source of the values: patent US9018388B2, “Pesticidal compositions and processes related thereto” (Dow AgroSciences LLC, priority 2012, dated 2015).
